The experiment relates to rabbit cornea. Kind of experiment: Penetration enhancement testing: rate of diffusion of drug between chambers separated by rabbit cornea. The settings on record: test drugs prednisolone, guanethidine, flurbiprofen, compound used as penetration enhancer. The experiment is classed as in vitro ADME. The method, then:
Permeation efficiencies are determined by measuring the rate of diffusion of drug between posterior and anterior chambers separated by rabbit cornea. Suitable test drugs include prednisolone, guanethidine, and flurbiprofen. Compounds II and V, described in Examples 2 and 4 above, are tested penetration enhancers. Water, acetone, ethanol, and GBR (glutathione-buffered Ringer's solution) are convenient vehicles used alone or in combination together with the test drugs and the proposed penetration enhancers. The relative rates of diffusion can be determined indirectly by measuring pH versus time in the respective chambers, or by HPLC.

SMILES strings stand for the structures.

For the molecule `O=C1CCCCCN1CCOCCOCCO` [Compound V, N-triethyleneglycol Caprolactam], the “penetration or permeation of test drugs relative to similar compositions without the present compounds” value is “enhanced penetration or permeation”.

On to `CCOCCOCCOCCN1CCCCCC1=O` [Compound II, N-triethoxyethylether Caprolactam], for which the “penetration or permeation of test drugs relative to similar compositions without the present compounds” value is listed as “enhanced penetration or permeation”.

The values are drawn from US6521613B2, “Lactam compounds for penetration enhancement” (Allergan, Inc., priority 2001, dated 2003).
